In patent US20250154169A1, “COMPOUNDS AND METHODS FOR MODULATING SPLICING” (REMIX THERAPEUTICS INC., priority 2021, published 2025):

Experiments:
MYB mRNA = assay: Splicing RT-qPCR assay, MYB canonical (CJ) and alternative (AJ) junction mRNA; format: cell-based, human; details: Homo sapiens, 24 h, A673 or K562 cells, 24 hours compound treatment, RT-qPCR; for AC50: read-out: MYB AJ (AC50, increase in alternative junction mRNA); for IC50: read-out: MYB CJ (IC50, decrease in canonical junction mRNA)
Method in brief: (§1)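 A673 or K562 cells were treated 24 h at 37 °C with an 11-point 3-fold compound dilution series (top 10 uM, DMSO ≤0.25%). Lysates went to one-step RT-qPCR measuring canonical (CJ) and alternative-exon (AJ) junction transcripts, normalized to GAPDH, GUSB or PPIA.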

HTT mRNA = assay: Splicing RT-qPCR assay, HTT canonical (CJ) and alternative (AJ) junction mRNA; format: cell-based, human; details: Homo sapiens, A673 or K562 cells, 24 hours compound treatment; for IC50: 24 h, read-out: HTT CJ (IC50, decrease in canonical junction mRNA); for AC50: read-out: HTT AJ (AC50, increase in alternative junction mRNA)
Method in brief: as §1

SMILES | AC50 (MYB mRNA) | IC50 (MYB mRNA) | IC50 (HTT mRNA) | AC50 (HTT mRNA)
CCn1cc2c(N3CC[C@](C)(NC)C3)ccc(C(=O)Nc3cc(F)c4nc(C)cn4c3)c2n1 [Compound 548, 2-ethyl-N-{8-fluoro-2-methylimidazo [1,2-a]pyridin-6-yl}-4-[(3S)-3-methyl-3-(methylamino)pyrrolidin-1-yl]indazole-7-carboxamide] | > 10 µM | > 10 µM | > 10 µM | > 10 µM
CCn1cc2c(N3C[C@H](C)N[C@@H](C)C3)ccc(C(=O)Nc3cc(F)c4nc(C)cn4c3)c2n1 [Compound 592] | 0.1 to 1 µM | 0.1 to 1 µM | 1 to 10 µM | > 10 µM
CO[C@H]1C[C@H](n2cc3c(N4CCNCC4)ccc(C(=O)Nc4cc(F)c5nc(C)cn5c4)c3n2)C1 [Compound 496, Cis-N-(8-fluoro-2-methylimidazo[1,2-a]pyridin-6-yl)-2-((1s,3s)-3-methoxycyclobutyl)-4-(piperazin-1-yl)-2H-indazole-7-carboxamide 2,2,2-trifluoroacetate] | > 10 µM | > 10 µM | > 10 µM | > 10 µM
Cc1cc(NC(=O)c2ccc(N3CCNCC3)c3cn(C)nc23)c(O)c2cn(C)nc12 [Compound 484, N-(4-hydroxy-2,7-dimethylindazol-5-yl)-2-methyl-4-(piperazin-1-yl) indazole-7-carboxamide] | > 10 µM | > 10 µM | > 10 µM | > 10 µM
CCn1cc2c(OC3CCNC3)ccc(C(=O)Nc3cc(F)c4nc(C)cn4c3)c2n1 (stereo not shown) [Compound 498, 2-ethyl-N-{8-fluoro-2-methylimidazo[1,2-a]pyridin-6-yl}-4-(pyrrolidin-3-yloxy) indazole-7-carboxamide] | 0.1 to 1 µM | 0.1 to 1 µM | 0.1 to 1 µM | 1 to 10 µM
CCn1cc2c(N3CCNC(CO)C3)ccc(C(=O)Nc3cc(F)c4nc(C)cn4c3)c2n1 (stereo not shown) [Compound 403, 2-ethyl-N-{8-fluoro-2-methylimidazo[1,2-a]pyridin-6-yl}-4-[3-(hydroxymethyl)piperazin-1-yl]indazole-7-carboxamide] | 0.1 to 1 µM | 0.1 to 1 µM | 1 to 10 µM | 1 to 10 µM
Cc1cn2cc(NC(=O)c3ccc(N4CC[C@@H](Nc5ccccc5)C4)c4cn(C)nc34)cc(F)c2n1 [Compound 579, N-{8-fluoro-2-methylimidazo[1,2-a]pyridin-6-yl}-2-methyl-4-[(3R)-3-(phenylamino)pyrrolidin-1-yl] indazole-7-carboxamide] | > 10 µM | > 10 µM | > 10 µM | > 10 µM
COCc1nc2c(F)cc(NC(=O)c3ccc(N4CCNCC4)c4cn(C)nc34)cc2o1 [Compound 504, N-[4-fluoro-2-(methoxymethyl)-1,3-benzoxazol-6-yl]-2-methyl-4-(piperazin-1-yl) indazole-7-carboxamide] | 1 to 10 µM | 1 to 10 µM | 1 to 10 µM | 1 to 10 µM
CN[C@@H]1CCN(c2ccc(C(=O)Nc3nc(OC)c4nc(C)cn4c3F)c3nn(C)cc23)C1 [Compound 651] | > 10 µM | > 10 µM | > 10 µM | > 10 µM
CCn1cc2c(N3CCC(C)(NC4CC4)CC3)ccc(C(=O)Nc3cc(F)c4nc(C)cn4c3)c2n1 [Compound 525, 4-[4-(cyclopropylamino)-4-methylpiperidin-1-yl]-2-ethyl-N-{8-fluoro-2-methylimidazo[1,2-a]pyridin-6-yl}indazole-7-carboxamide] | < 0.1 µM | < 0.1 µM | 0.1 to 1 µM | 0.1 to 1 µM
Cc1cn2cc(NC(=O)c3ccc(N4CC[C@@H](NCC5(O)CC5)C4)c4cn(C)nc34)cc(F)c2n1 [Compound 639] | 0.1 to 1 µM | 0.1 to 1 µM | > 10 µM | > 10 µM
CCn1cc2c(N3CCC(NCC4(O)CC4)CC3)ccc(C(=O)Nc3cc(F)c4nc(C)cn4c3)c2n1 [Compound 576, 2-ethyl-N-{8-fluoro-2-methylimidazo[1,2-a]pyridin-6-yl}-4-(4-{[(1-hydroxycyclopropyl)methyl]amino}piperidin-1-yl) indazole-7-carboxamide] | 0.1 to 1 µM | 0.1 to 1 µM | 1 to 10 µM | > 10 µM
CCn1cc2c(N3CC[C@@H](NC)C3)cc(OC)c(C(=O)Nc3cc(F)c4nc(C)cn4c3)c2n1 [Compound 653] | > 10 µM | > 10 µM | > 10 µM | > 10 µM
